Reference: patent US9364479B2, “Use of a receptor-type kinase modulator for treating polycystic kidney disease” (SYMPHONY EVOLUTION, INC., priority 2010, dated 2016)

Key:
[1] = target: T1, EphB4 (Homo sapiens, UniProt P54760); experiment: Radiometric 33P-phosphoryl transfer kinase assay; format: biochemical; settings: ATP at Km
T1 construct: residues E605-E890 of human EphB4 containing a six histidine NH2-terminal tag; His6 (N); made in house; host or cells: baculovirus expression system
T1 sequence (P54760 605-890): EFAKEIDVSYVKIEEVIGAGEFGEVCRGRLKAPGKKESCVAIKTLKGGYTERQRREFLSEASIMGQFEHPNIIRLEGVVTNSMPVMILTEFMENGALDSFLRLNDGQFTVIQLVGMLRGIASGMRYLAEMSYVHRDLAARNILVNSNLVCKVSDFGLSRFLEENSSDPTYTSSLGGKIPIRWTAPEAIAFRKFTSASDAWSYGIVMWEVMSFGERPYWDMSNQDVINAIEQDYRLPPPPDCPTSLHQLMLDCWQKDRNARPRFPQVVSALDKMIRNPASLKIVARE
Protocol: (§1) Dose-response experiments were done using 10 different inhibitor concentrations in 384-well microtiter plates. The ATP concentration used for each assay was equivalent to the Km for each kinase. IC50 values were calculated by nonlinear regression analysis using the four-variable equation: Y=min+(max−min)/[1+([I]/IC50)N], where Y is the observed signal, [I] is the inhibitor concentration, min is the background signal in the absence of enzyme (0% enzyme activity), max is the signal in the absence of inhibitor (100% enzyme activity), IC50 is the inhibitor concentration required at 50% enzyme inhibition, and N represents the empirical Hill slope as a measure of cooperativity.
(§2) A radiometric ^33P-Phosphoryl transfer kinase assay was used to measure EphB4, insulin-like growth factor-I receptor (IGFR-1), and insulin receptor (IRK) activity. Reactions were performed in 384-well white, clear bottom, high-binding microtiter plates (Greiner). Plates were coated with 2 μg/well peptide substrate in a 50 μL volume. […] The coated plates were washed once with 50 μL assay buffer following overnight incubation at room temperature. Test compound and either 5 nmol/L EphB4 (residues E605-E890 of human EphB4 containing a six histidine NH2-terminal tag, expressed in a baculovirus expression system and purified using metal chelate chromatography), 4 nmol/L insulin-like growth factor-I receptor (residues M954-C1367 of human insulin-like growth factor-I receptor, Proqinase GmbH), or 15 nmol/L insulin receptor 1 (residues P948-S1343 of human insulin receptor 1, Proqinase) were combined with [^33P]g-ATP (5 μmol/L, 3.3 μCi/nmol) in a total volume of 20 μL. The reaction mixture was incubated at room temperature for 1.5 to 2.5 h and terminated by aspiration. The microtiter plates were subsequently washed six times with 0.05% Tween-PBS buffer. Scintillation fluid (50 μL/well) was added and incorporated ^33P was measured by liquid scintillation spectrometry using a MicroBeta scintillation counter (Perkin-Elmer).

[2] = target: T2, IGF1R (Homo sapiens, UniProt P08069); experiment: Radiometric 33P-phosphoryl transfer kinase assay; format: biochemical; settings: ATP at Km
T2 construct: residues M954-C1367 of human insulin-like growth factor-I receptor, Proqinase GmbH; purchased Proqinase GmbH
T2 sequence (P08069 954-1367): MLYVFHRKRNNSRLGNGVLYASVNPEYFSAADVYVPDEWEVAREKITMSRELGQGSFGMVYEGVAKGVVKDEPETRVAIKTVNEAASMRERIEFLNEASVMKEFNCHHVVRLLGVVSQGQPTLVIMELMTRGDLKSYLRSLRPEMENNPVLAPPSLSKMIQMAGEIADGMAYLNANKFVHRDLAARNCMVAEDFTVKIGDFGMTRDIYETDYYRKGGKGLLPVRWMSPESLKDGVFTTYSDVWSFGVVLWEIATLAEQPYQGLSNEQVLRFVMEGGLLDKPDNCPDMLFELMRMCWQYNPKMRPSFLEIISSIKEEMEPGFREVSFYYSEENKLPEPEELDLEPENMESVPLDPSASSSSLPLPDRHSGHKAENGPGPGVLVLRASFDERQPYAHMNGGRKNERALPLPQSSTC
Protocol: as §1, §2

[3] = target: T3, InsR (Homo sapiens, UniProt P06213); experiment: Radiometric 33P-phosphoryl transfer kinase assay; format: biochemical; settings: ATP at Km
T3 construct: residues P948-S1343 of human insulin receptor 1, Proqinase; purchased Proqinase
T3 sequence (P06213 987-1382): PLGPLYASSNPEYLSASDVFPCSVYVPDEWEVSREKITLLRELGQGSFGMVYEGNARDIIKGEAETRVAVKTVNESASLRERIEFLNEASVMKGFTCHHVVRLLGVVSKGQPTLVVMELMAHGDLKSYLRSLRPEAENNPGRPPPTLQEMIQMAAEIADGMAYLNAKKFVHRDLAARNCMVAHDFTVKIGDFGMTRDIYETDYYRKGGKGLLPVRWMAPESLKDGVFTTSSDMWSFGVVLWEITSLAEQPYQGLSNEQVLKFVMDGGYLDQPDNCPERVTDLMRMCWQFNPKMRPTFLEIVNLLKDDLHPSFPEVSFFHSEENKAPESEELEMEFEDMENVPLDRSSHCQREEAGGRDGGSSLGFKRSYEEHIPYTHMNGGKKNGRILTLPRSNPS
Protocol: as §1, §2

[4] = target: T4, Potassium Channel, Ca2+ Act., VS (Homo sapiens, UniProt Q12791); experiment: NovaScreen assay; format: binding; settings: read-out: Inhibition, 10 μM XL-647
T4 construct: NovaScreen
T4 sequence (Q12791 whole entry): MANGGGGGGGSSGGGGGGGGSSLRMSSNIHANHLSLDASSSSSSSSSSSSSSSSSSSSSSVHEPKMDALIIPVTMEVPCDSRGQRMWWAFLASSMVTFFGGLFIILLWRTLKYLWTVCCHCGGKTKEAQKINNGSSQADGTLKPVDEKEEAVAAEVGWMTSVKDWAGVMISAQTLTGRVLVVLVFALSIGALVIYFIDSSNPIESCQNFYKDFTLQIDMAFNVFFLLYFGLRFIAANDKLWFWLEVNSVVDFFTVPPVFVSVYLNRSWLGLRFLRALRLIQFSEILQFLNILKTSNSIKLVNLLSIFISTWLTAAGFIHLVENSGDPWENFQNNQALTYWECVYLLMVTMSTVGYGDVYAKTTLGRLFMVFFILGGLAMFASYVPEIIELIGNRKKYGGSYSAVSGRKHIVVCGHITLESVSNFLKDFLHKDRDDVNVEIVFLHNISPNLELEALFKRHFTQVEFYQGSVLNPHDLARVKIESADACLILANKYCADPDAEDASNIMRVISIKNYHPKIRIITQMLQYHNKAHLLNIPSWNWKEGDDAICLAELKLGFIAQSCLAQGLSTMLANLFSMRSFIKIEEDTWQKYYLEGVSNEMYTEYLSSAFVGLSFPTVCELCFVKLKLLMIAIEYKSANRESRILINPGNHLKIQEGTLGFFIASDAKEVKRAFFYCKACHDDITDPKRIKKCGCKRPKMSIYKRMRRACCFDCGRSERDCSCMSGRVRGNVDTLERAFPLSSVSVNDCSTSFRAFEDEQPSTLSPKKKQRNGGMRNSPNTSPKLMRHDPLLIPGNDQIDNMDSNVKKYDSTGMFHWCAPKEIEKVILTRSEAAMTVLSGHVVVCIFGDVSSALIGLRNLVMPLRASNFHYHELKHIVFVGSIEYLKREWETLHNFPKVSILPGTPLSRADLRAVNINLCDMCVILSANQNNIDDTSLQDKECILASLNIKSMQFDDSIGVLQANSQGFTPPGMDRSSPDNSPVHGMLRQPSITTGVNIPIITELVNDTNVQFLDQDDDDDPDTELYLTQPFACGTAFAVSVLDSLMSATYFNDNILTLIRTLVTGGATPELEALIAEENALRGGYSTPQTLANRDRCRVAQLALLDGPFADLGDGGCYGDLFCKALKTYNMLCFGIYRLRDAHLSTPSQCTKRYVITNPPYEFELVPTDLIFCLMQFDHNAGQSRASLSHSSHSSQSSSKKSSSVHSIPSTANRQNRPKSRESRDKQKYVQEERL

[5] = target: T5, Endothelin, ET-A (Human) (Homo sapiens, UniProt P25101); experiment: NovaScreen assay; format: binding; settings: read-out: Inhibition, 10 μM XL-647
T5 construct: NovaScreen
T5 sequence (P25101 21-427): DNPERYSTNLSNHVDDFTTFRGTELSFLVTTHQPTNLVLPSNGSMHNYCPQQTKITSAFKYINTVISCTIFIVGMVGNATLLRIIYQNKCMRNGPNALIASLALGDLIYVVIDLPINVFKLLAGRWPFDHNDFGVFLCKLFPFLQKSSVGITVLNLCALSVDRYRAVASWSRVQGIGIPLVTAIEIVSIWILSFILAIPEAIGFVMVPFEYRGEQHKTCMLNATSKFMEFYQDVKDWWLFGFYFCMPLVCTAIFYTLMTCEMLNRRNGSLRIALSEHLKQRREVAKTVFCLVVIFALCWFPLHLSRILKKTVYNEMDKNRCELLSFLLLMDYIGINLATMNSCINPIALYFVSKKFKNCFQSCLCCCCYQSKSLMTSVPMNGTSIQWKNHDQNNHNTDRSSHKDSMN

[6] = in vivo; settings: for AUC(0-t) / Cmax / half-life: po; for dosing terminated because of toxicity: 2 days
Protocol: The nonclinical Pharmacokinetics (PK) of XL-647 was studied in mice, rats, dogs, and monkeys. Animals were dosed either once or daily over several days, as described in Table 21 and 22 below. A summary of results can also be found in Tables 21 and 22 below. […] Mean tmax values were approximately 4 to 8 hours, and plasma terminal half-lives ranged from 9.41 to 20.9 hours.

Compound `COc1cc2c(Nc3ccc(Cl)c(Cl)c3F)ncnc2cc1OC[C@@H]1C[C@@H]2CN(C)C[C@@H]2C1` [XL-647, N-(3,4-dichloro-2-fluorophenyl)-7-({[(3aR,5r,6aS)-2-methyloctahydrocyclopenta[c]pyrrol-5-yl]methyl}oxy)-6-(methyloxy)quinazolin-4-amine] has an IC50 [1] of 0.0014 ± 0.0002 µM, an IC50 [2] of over 10 µM and an IC50 [3] of over 26 µM. It also gave an inhibition at 10 µM [4] of 22.7%, an inhibition at 10 µM [5] of -11.1% and an AUC(0-t) ([6]; female, dog, 100 mg/kg) of 21200 ng·h/mL. For the same compound, the Cmax ([6]; female, dog, 100 mg/kg) was 1100 ng/mL, the half-life ([6]; female, dog, 100 mg/kg) was 14.2 h and the AUC(0-t) ([6]; female, dog, 300 mg/kg) was 17100 ng·h/mL. The Cmax ([6]; female, dog, 300 mg/kg) was 1610 ng/mL, the half-life ([6]; female, dog, 300 mg/kg) was 12.1 h and the AUC(0-t) ([6]; female, dog, 1000 mg/kg) was 34200 ng·h/mL. The Cmax ([6]; female, dog, 1000 mg/kg) was 5090 ng/mL, the half-life ([6]; female, dog, 1000 mg/kg) was 16.1 h and the AUC(0-t) ([6]; female, monkey, 2 mg/kg) was 450 ng·h/mL. For the same compound, the Cmax ([6]; female, monkey, 2 mg/kg) was 38 ng/mL, the AUC(0-t) ([6]; female, monkey, 6 mg/kg) was 1690 ng·h/mL and the Cmax ([6]; female, monkey, 6 mg/kg) was 116 ng/mL. For the same compound, the AUC(0-t) ([6]; female, monkey, 10 mg/kg) was 4270 ng·h/mL, the Cmax ([6]; female, monkey, 10 mg/kg) was 216 ng/mL and the half-life ([6]; female, monkey, 10 mg/kg) was 14.9 h. It also gave an AUC(0-t) ([6]; female, monkey, 20 mg/kg) of 3910 ng·h/mL, a Cmax ([6]; female, monkey, 20 mg/kg) of 202 ng/mL and a half-life ([6]; female, monkey, 50 mg/kg) of 14.8 h. The AUC(0-t) ([6]; female, monkey, 100 mg/kg) was 28000 ng·h/mL, the Cmax ([6]; female, monkey, 100 mg/kg) was 2160 ng/mL and the half-life ([6]; female, monkey, 100 mg/kg) was 11.6 h. For the same compound, the AUC(0-t) ([6]; female, monkey, 150 mg/kg) was 7030 ng·h/mL, the Cmax ([6]; female, monkey, 150 mg/kg) was 379 ng/mL and the half-life ([6]; female, monkey, 150 mg/kg) was 20.4 h. It also gave an AUC(0-t) ([6]; male, dog, 100 mg/kg) of 8970 ng·h/mL, a Cmax ([6]; male, dog, 100 mg/kg) of 407 ng/mL and a half-life ([6]; male, dog, 100 mg/kg) of 10.4 h. For the same compound, the AUC(0-t) ([6]; male, dog, 300 mg/kg) was 7790 ng·h/mL, the Cmax ([6]; male, dog, 300 mg/kg) was 936 ng/mL and the half-life ([6]; male, dog, 300 mg/kg) was 12.7 h. For the same compound, the AUC(0-t) ([6]; male, dog, 1000 mg/kg) was 27300 ng·h/mL, the Cmax ([6]; male, dog, 1000 mg/kg) was 3770 ng/mL and the half-life ([6]; male, dog, 1000 mg/kg) was 13.2 h. For the same compound, the AUC(0-t) ([6]; male, monkey, 2 mg/kg) was 488 ng·h/mL, the Cmax ([6]; male, monkey, 2 mg/kg) was 28.4 ng/mL and the AUC(0-t) ([6]; male, monkey, 6 mg/kg) was 1860 ng·h/mL. For the same compound, the Cmax ([6]; male, monkey, 6 mg/kg) was 106 ng/mL, the AUC(0-t) ([6]; male, monkey, 10 mg/kg) was 3630 ng·h/mL and the Cmax ([6]; male, monkey, 10 mg/kg) was 230 ng/mL. It also gave a half-life ([6]; male, monkey, 10 mg/kg) of 14.7 h, an AUC(0-t) ([6]; male, monkey, 20 mg/kg) of 3900 ng·h/mL and a Cmax ([6]; male, monkey, 20 mg/kg) of 194 ng/mL. The half-life ([6]; male, monkey, 50 mg/kg) was 20.5 h, the AUC(0-t) ([6]; male, monkey, 100 mg/kg) was 19600 ng·h/mL and the Cmax ([6]; male, monkey, 100 mg/kg) was 1220 ng/mL. For the same compound, the half-life ([6]; male, monkey, 100 mg/kg) was 20.7 h, the AUC(0-t) ([6]; male, monkey, 150 mg/kg) was 14500 ng·h/mL and the Cmax ([6]; male, monkey, 150 mg/kg) was 737 ng/mL. For the same compound, the half-life ([6]; male, monkey, 150 mg/kg) was 19.8 h, the “dosing terminated because of toxicity observed on Days 6 and 7” value ([6]; monkey, 20 mg/kg) was “then terminated because” and the “dosing terminated because of toxicity” value ([6]; monkey, 50 mg/kg) was “bid × 2, then terminated”. The “dosing terminated because of toxicity” value ([6]; monkey, 100 mg/kg) was “qd × 2, then terminated”, the “dosing terminated because of toxicity” value ([6]; monkey, 300 mg/kg) was “qd × 2, then terminated” and the AUC(0-t) ([6]; rat, 1 mg/kg) was 198 ng·h/mL. It also gave a Cmax ([6]; rat, 1 mg/kg) of 12.7 ng/mL, a half-life ([6]; rat, 1 mg/kg) of 14.4 h and an AUC(0-t) ([6]; rat, 3 mg/kg) of 776 ng·h/mL. It also gave a Cmax ([6]; rat, 3 mg/kg) of 50.4 ng/mL, a half-life ([6]; rat, 3 mg/kg) of 20.4 h and an AUC(0-t) ([6]; rat, 30 mg/kg) of 5740 ng·h/mL. For the same compound, the Cmax ([6]; rat, 30 mg/kg) was 319 ng/mL, the half-life ([6]; rat, 30 mg/kg) was 20.4 h and the AUC(0-t) ([6]; rat, 100 mg/kg) was 18300 ng·h/mL. The Cmax ([6]; rat, 100 mg/kg) was 909 ng/mL, the AUC(0-t) ([6]; rat, 200 mg/kg) was 29500 ng·h/mL and the Cmax ([6]; rat, 200 mg/kg) was 1000 ng/mL. It also gave an AUC(0-t) ([6]; rat, 600 mg/kg) of 41200 ng·h/mL, a Cmax ([6]; rat, 600 mg/kg) of 1330 ng/mL and an AUC(0-t) ([6]; rat, 2000 mg/kg) of 53000 ng·h/mL. It also gave a Cmax ([6]; rat, 2000 mg/kg) of 1690 ng/mL.
